BigSolDB 2.1

O=C1CCc2cc(O)ccc2N1
solubility (mole fraction)
Conditions	in THF	in acetonitrile	in ethanol	in ethyl acetate	in isobutanol	in isopropanol	in methanol	in methyl acetate	in n-butanol	in n-propanol
278.15 K	0.00248	0.000292	0.00214	0.000666	0.00114	0.00186	0.00224	0.00155	0.00181	0.00173
283.15 K	0.00277	0.000345	0.00242	0.000723	0.00134	0.00226	0.0027	0.00172	0.00201	0.00202
288.15 K	0.00307	0.000403	0.00281	0.000792	0.00162	0.0026	0.00309	0.00188	0.00232	0.00236
293.15 K	0.00346	0.00048	0.00324	0.00086	0.00192	0.003	0.00356	0.00209	0.00269	0.0027
298.15 K	0.00383	0.000576	0.00373	0.000927	0.00229	0.00346	0.00412	0.00231	0.00309	0.00314
303.15 K	0.00424	0.000668	0.00431	0.000992	0.00268	0.00395	0.0048	0.00257	0.00357	0.00364
308.15 K	0.00473	0.000784	0.00496	0.00108	0.00316	0.00471	0.00551	0.00287	0.00409	0.00419
313.15 K	0.00526	0.000887	0.00574	0.00115	0.00378	0.0055	0.00648	0.00316	0.00473	0.00482
318.15 K	0.00591	0.00102	0.00664	0.00122	0.00427	0.00631	0.00745	0.00352	0.00543	0.00554
323.15 K	0.00651	0.00118	0.00761	0.00131	0.00493	0.00721	0.00838	0.00391	0.00623	0.00641
